Four molecules from publication PMC3441040 (ACS Medicinal Chemistry Letters, 2012) can be followed below.

For one assay, the target named is T1, purified murine COX-2 (Mus musculus, UniProt Q05769).
T1 sequence (Q05769 18-604): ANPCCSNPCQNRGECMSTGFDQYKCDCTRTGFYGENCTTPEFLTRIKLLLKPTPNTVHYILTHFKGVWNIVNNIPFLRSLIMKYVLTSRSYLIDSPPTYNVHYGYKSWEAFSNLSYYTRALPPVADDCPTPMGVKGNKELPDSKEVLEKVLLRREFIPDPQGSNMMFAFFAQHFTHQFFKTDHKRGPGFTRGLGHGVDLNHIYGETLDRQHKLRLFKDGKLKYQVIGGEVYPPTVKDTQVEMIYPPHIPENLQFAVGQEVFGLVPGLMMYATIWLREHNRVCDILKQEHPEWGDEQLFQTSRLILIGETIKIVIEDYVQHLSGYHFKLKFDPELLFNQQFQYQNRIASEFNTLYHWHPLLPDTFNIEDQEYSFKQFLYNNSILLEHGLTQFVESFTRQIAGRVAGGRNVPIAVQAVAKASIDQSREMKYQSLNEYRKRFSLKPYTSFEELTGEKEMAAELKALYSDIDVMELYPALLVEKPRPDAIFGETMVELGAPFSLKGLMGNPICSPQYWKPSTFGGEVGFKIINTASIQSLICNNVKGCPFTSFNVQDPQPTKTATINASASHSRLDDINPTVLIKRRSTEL
Description: Inhibition of mCOX-2 dependent oxygenation of 2-AG and AA in vitro. The class given is biochemical. Particulars: read-out: 2-AG IC50 (dash).

Assay [1] relates to COX-2 dependent oxygenation in RAW 264.7 macrophages. Description: Oxygenation of 2-AG and AA in LPS/interferon γ stimulated RAW 264.7 macrophages. The assay is classed as cell-based. The settings on record: Mus musculus, RAW264.7, read-out: AA inhibition in RAW 264.7 cells.

For the molecule `COc1ccc2cc(C(C)(C)C(=O)O)ccc2c1` [4b], the inhibition at 10 µM at purified murine COX-2 was < 50%. Turning to `CC(C)Cc1ccc(C(C)(C)C(=O)O)cc1` [4c], on purified murine COX-2, the inhibition at 10 µM is < 50%. Regarding `CC(C)Cc1ccc(C2(C(=O)O)CC2)cc1` [5c], the inhibition at 10 µM on purified murine COX-2 was < 50%. For the molecule `C[C@@H](C(=O)O)c1ccc(-c2ccccc2)c(F)c1` [7a, (R)-flurbiprofen], the inhibition at 50 µM in assay [1] was determined as 0%.
